Source: ChEMBL document CHEMBL1201862, “PubChem BioAssay data set” (2004)
Activity calls are given as the source filed them.

How the values were obtained:
[1] = molecular target: T1, Heat shock factor protein 1 (Mus musculus, UniProt P38532); test: HSF1 potentiators in luciferase reporter cells, confirmation, cell-based, NIH3T3, luminescence, dose retest (AID 435004); type: functional;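 further: stress induced by proteasome inhibitor MG132 added 30 min after compound; luciferase reporter driven by HSF1 response element in NIH3T3 cells; actives raise luminescence as potentiators of the MG132 stress response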
T1 sequence (P38532 whole entry): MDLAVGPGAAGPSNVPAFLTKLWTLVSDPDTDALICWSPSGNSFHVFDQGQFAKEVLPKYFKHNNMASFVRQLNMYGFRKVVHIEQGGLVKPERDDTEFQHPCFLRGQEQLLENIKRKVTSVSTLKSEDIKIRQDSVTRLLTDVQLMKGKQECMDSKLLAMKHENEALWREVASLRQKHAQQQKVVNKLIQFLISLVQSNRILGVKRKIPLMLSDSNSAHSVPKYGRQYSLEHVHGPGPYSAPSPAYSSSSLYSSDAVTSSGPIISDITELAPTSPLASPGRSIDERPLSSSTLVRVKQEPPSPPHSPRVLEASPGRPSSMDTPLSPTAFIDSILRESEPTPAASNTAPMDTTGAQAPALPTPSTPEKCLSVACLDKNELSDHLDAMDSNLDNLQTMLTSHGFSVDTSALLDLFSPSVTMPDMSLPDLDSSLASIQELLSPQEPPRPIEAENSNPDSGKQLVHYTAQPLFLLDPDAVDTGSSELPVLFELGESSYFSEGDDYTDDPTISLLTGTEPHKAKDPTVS

[2] = control 3'UTR Renilla luciferase suppression, dose response, counter-screen for Shn3 inhibitor project, cell-based, Clone20-Shn3RL, cherry-picked (AID 624133); type: functional
[3] = Shn3 3'UTR reporter inhibitors, dose response, cell-based, Clone20 osteoblasts, firefly luciferase, cherry-picked (AID 624132); type: functional;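 further: firefly luciferase luminescence from reporter carrying the Shn3 3'UTR in osteoblasts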
[4] = HepG2 cell cytotoxicity, dose response, cytotoxicity control for Shn3 inhibitor project, CellTiter-Glo, cherry-picked (AID 624134); type: functional, cell-based
[5] = cytotoxicity in KRAS-transformed pancreatic duct cells, primary screen, cell-based, fluorescence, HTS (AID 431); type: functional; details: Homo sapiens;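 further: cell line used: HPDE-C7K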
[6] = NIH-3T3 fibroblast cytotoxicity, dose response, cytotoxicity control, cell-based, fluorescence, Alamar Blue, secondary assay (AID 2327); type: functional;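 further: NIH-3T3 mouse fibroblasts cultured with fluconazole at 8 µg/mL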
[7] = C. albicans growth with fluconazole, confirmation, fluorescence, retest (AID 2467); type: functional, cell-based
[8] = cytotoxicity in HPDE-C7 cells, cell-based, fluorescence, HTS (AID 430); type: functional; details: Homo sapiens
Leucine aminopeptidase = molecular target: T2, Leucine aminopeptidase (Plasmodium falciparum 3D7, UniProt Q8IL11); test: P. falciparum M17LAP inhibitors, primary screen, biochemical, fluorogenic H-Leu-NHMec substrate, 1536-well (AID 1619); type: functional
T2 sequence (Q8IL11 whole entry): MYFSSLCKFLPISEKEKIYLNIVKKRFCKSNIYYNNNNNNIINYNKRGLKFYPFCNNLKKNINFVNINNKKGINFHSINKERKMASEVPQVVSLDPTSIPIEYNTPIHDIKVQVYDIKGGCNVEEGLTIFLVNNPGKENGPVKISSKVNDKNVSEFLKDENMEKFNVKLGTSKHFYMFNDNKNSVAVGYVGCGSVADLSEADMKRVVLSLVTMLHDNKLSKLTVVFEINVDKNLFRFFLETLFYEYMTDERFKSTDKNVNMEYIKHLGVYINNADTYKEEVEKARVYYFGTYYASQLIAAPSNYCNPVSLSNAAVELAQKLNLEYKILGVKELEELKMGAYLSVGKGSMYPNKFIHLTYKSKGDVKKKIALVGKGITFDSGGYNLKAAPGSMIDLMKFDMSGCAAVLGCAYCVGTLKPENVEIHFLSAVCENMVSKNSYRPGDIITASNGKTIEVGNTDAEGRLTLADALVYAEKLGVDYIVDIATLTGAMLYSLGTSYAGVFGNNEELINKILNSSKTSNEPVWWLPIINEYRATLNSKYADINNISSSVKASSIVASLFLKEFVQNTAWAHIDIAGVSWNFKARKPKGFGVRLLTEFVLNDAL

[9] = microbe, parasite or virus in culture; type: functional; details: Mycobacterium tuberculosis
[10] = cytotoxicity toward NIH3T3 fibroblasts, dose response, counter-screen, cell-based, ATP luminescence, mouse fibroblasts (AID 2010); type: functional;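 further: cells exposed to compound for about 90 hours before reading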
[11] = inhibitors of intracellular T. cruzi replication, confirmation, NIH3T3 host cells, beta-gal luminescence (AID 2044); type: functional, cell-based;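 further: intracellular parasites grown in NIH/3T3 mouse fibroblasts as host cells; luminescent beta-galactosidase reporter signal from transgenic T. cruzi replicating inside host cells; inhibitors lower the luminescence signal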
Streptococcus = test: Group A Streptococcus viability loss, dose response, counter-screen for streptokinase expression inhibitor project, luminescence, BacTiterGlo (AID 1915); type: functional, organism-based;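 further: potency for reduction of bacterial viability or growth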
[12] = Luminescence Cell-Based Dose Retest to Confirm Inhibitors of Cancer Stem Cells. [Related pubchem assays (depositor defined):AID2717, AID2721]; type: functional; details: Homo sapiens
[13] = system: Streptococcus sp. 'group A'; test: growth inhibition of control SK(-) GAS strain, dose response, counter-screen for streptokinase expression inhibitor project, luminescence, kanamycin, BacTiterGlo, confirmation (AID 1900); type: functional, organism-based
Prothrombin = Prothrombin (Homo sapiens, UniProt P00734); test: Thrombin 1536 HTS Dose Response Confirmation. [Related pubchem assays: 1046 (Thrombin 1536 HTS; hits were confirmed in this assay)]; type: functional
[14] = molecular target: T3, Ubiquitin-conjugating enzyme E2 N (Homo sapiens, UniProt P61088); type: functional;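 further: Dose-response confirmation in a TR-FRET assay detecting UBC13-driven polyubiquitin chain formation, inhibition measured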
T3 sequence (P61088 whole entry): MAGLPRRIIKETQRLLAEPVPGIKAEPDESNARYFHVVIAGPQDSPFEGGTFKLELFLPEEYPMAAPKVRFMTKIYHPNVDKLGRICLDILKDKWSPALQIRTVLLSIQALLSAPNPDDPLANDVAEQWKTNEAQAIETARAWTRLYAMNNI

[15] = molecular target: T4, Microphthalmia-associated transcription factor (Homo sapiens, UniProt O75030); test: TRPM1 promoter luciferase signal decrease, dose response, MITF inhibitor project, cell-based, SK-MEL-5, cherry-picked, set 3 (AID 493073); type: functional
T4 sequence (O75030 whole entry): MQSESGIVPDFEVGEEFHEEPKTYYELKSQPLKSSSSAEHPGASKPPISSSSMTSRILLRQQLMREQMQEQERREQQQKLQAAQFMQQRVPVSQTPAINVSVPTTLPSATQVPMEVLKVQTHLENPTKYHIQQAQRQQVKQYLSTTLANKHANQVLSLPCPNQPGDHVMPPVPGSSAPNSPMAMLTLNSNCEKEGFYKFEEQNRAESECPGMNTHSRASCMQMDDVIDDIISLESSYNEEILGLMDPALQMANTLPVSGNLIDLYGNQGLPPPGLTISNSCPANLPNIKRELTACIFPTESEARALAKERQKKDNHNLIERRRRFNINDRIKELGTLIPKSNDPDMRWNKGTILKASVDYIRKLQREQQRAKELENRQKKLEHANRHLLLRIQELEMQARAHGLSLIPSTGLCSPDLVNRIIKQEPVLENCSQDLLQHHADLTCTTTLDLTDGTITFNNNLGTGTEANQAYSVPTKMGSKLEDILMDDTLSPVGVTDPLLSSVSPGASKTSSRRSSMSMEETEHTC

Cc1cccc(N2CCN(C(=O)CSCc3c(C)noc3C)CC2)c1C
EC50 [1]: 243 µM (active)
AC50 [2]: 3.48 µM (active)
AC50 [3]: 2.41 µM (active)
AC50 [4]: 36.3 µM (active)

COC(=O)[C@]1(C)CCC[C@@]2(C)C3CC[C@@]4(C)C[C@]3(CCC21)CC(=O)N4Cc1ccc(OC)cc1 (stereo partly specified)
AC50 [2]: 10.6 µM (active)
AC50 [3]: 8.16 µM (active)
AC50 [4]: > 70 µM (inactive)

Cc1ccc(C2C3CSCC=C3C(C#N)=C(N)C2(C#N)C#N)cc1 (stereo unspecified)
EC50 [5]: > 20 µM (not active)
EC50 [6]: > 160 µM (inactive)
EC50 [7]: > 38 µM (not active)
EC50 [8]: 17.4 µM (active)

COc1ccc(OC)c(S(=O)(=O)n2nnc3cc(Cl)ccc32)c1
IC50 (Leucine aminopeptidase): 103 µM (active)

COc1ccccc1C(=O)N=C(NC(=O)c1ccccc1OC)Nc1nc2ccccc2o1
CC50 [9]: 14 µM (active)
EC50 [10]: > 60 µM (not active)
EC50 [5]: 5.05 µM (active)
EC50 [11]: 1.38 µM (active)
EC50 [8]: 4.28 µM (active)

CCCOC(=O)c1ccc(Oc2c(C)n[nH]c2-c2ccc(OCC)cc2O)cc1
EC50 (Streptococcus): > 150 µM (not active)
AC50 [12]: 3.66 µM (active)
EC50 [13]: 11.1 µM (active)
EC50 [5]: 7.31 µM (active)
EC50 [8]: 11.9 µM (active)

COCCCNC(=O)/C(=C\c1cccn1C)NC(=O)c1cccs1
IC50 (Prothrombin): > 50 µM (inconclusive)

O=C(NCC1CCCCC1)C1(CC2CC(c3cccc(Br)c3)=NO2)CCNCC1 (stereo unspecified)
IC50 [14]: > 20 µM (inactive)
AC50 [15]: 18.1 µM (active)

O=C(c1cc2ccccc2[nH]1)N1CCOCC1
IC50 (Prothrombin): > 50 µM (not active)
